Source: PMC12527922, “Cocaine chemogenetics blunts drug-seeking by synthetic physiology” (Nature, 2025)

Tested on: [^18F]fallypride binding at D2/D3 receptors (extracellular dopamine)
Test: [^18F]fallypride PET, rats with coca-5HT3 in the LHb and controls
Format: in vivo, rat
Protocol: Male Sprague–Dawley rats were anaesthetized with isoflurane (1.5-2%) and then placed onto a stereotaxic frame (Kopf) and injected with AAV5-Syn::coca-5HT3-IRES-mCherry (0.5 µl, 4.95 × 10^12 vg per ml) into the LHb (AP relative to bregma, −3.8 mm; ML, ±0.7 mm; DV, −5.25 mm, at a 10° angle) (n = 5) or underwent sham surgery (n = 9). Male Th-cre rats were anaesthetized with isoflurane (1.5–2%) and then placed onto a stereotaxic frame (Kopf) and injected with AAV1-Syn::FLEX-coca-GlyR-IRES-mCherry (0.5 µl, 6 × 10^12 vg per ml) into the VTA (AP, −6.0 mm relative to bregma; ML, ±1.9 mm; DV, −8.3 mm at a 10° angle) (n = 9) or underwent sham surgery (n = 6). Approximately 3 weeks later, the rats were anaesthetized, placed inside the PET scanner (Mediso NanoScan PET/CT), injected with [^18F]fallypride (~13 MBq) and then scanned using PET. [^18F]fallypride reaches steady-state by around 45 min after its injection and then remains stable for at least 150 min[60]. […] The PET data were reconstructed and corrected for dead-time and radioactive decay and then co-registered to an magnetic resonance imaging template as previously described[46],[60],[61]. Co-registered images were analysed using one-way ANOVA and the resulting parametric images were filtered for statistically significant (P < 0.01) clusters larger than 100 contiguous voxels. All statistical parametric mapping (SPM) analyses were performed using MATLAB R2016 (MathWorks) and SPM12 (University College London)[62]. Next, additional quantitative assessments of PET images were performed using the PMOD software environment (PMOD Technologies). We generated time–activity curves using the co-registered dynamic PET images and the significant voxel clusters defined by the voxel-wise SPM analysis as the volume of interest. The standardized uptake value (SUV) was calculated using the equation SUV = C/(dose/BW) where C is the tissue concentration of [^18F]fallypride (kBq cm^−3), dose is the administered dose (MBq) and BW (kg) is the animal’s body weight. Statistical analyses were performed using Prism 10 (GraphPad).

COC(=O)[C@H]1[C@@H](OC(=O)c2ccccc2)C[C@@H]2CC[C@H]1N2C [cocaine]
Cerebellum, Mean (Coca-5HT3, Time 60 min): 111.27
Striatum, Mean (Coca-5HT3, Time 60 min): 100.47
Cerebellum, Mean (Coca-5HT3, Time 63 min): 107.441
Striatum, Mean (Coca-5HT3, Time 63 min): 99.116
Cerebellum, Mean (Coca-5HT3, Time 66 min): 105.193
Striatum, Mean (Coca-5HT3, Time 66 min): 105.45
Cerebellum, Mean (Coca-5HT3, Time 69 min): 101.891
Striatum, Mean (Coca-5HT3, Time 69 min): 101.914
Cerebellum, Mean (Coca-5HT3, Time 72 min): 100.511
Striatum, Mean (Coca-5HT3, Time 72 min): 99.6684
Cerebellum, Mean (Coca-5HT3, Time 75 min): 97.2849
Striatum, Mean (Coca-5HT3, Time 75 min): 101.446
Cerebellum, Mean (Coca-5HT3, Time 78 min): 98.3773
Striatum, Mean (Coca-5HT3, Time 78 min): 97.1795
Cerebellum, Mean (Coca-5HT3, Time 81 min): 97.6857
Striatum, Mean (Coca-5HT3, Time 81 min): 99.4438
Cerebellum, Mean (Coca-5HT3, Time 84 min): 92.2137
Striatum, Mean (Coca-5HT3, Time 84 min): 99.5545
Cerebellum, Mean (Coca-5HT3, Time 87 min): 94.6333
Striatum, Mean (Coca-5HT3, Time 87 min): 100.176
Cerebellum, Mean (Coca-5HT3, Time 90 min): 93.4987
Striatum, Mean (Coca-5HT3, Time 90 min): 95.582
Cerebellum, Mean (Coca-5HT3, Time 92 min): 99.4012
Striatum, Mean (Coca-5HT3, Time 92 min): 95.8906
Cerebellum, Mean (Coca-5HT3, Time 94 min): 96.5331
Striatum, Mean (Coca-5HT3, Time 94 min): 92.7294
Cerebellum, Mean (Coca-5HT3, Time 96 min): 96.1496
Striatum, Mean (Coca-5HT3, Time 96 min): 97.7961
Cerebellum, Mean (Coca-5HT3, Time 98 min): 96.6515
Striatum, Mean (Coca-5HT3, Time 98 min): 98.5867
Cerebellum, Mean (Coca-5HT3, Time 100 min): 92.3336
Striatum, Mean (Coca-5HT3, Time 100 min): 97.1381
Cerebellum, Mean (Coca-5HT3, Time 104 min): 94.2368
Striatum, Mean (Coca-5HT3, Time 104 min): 97.3152
Cerebellum, Mean (Coca-5HT3, Time 106 min): 94.1983
Striatum, Mean (Coca-5HT3, Time 106 min): 95.2722
Cerebellum, Mean (Coca-5HT3, Time 110 min): 94.753
Striatum, Mean (Coca-5HT3, Time 110 min): 92.686
Cerebellum, Mean (Coca-5HT3, Time 112 min): 89.5645
Striatum, Mean (Coca-5HT3, Time 112 min): 94.0331
Cerebellum, Mean (Coca-5HT3, Time 116 min): 89.6884
Striatum, Mean (Coca-5HT3, Time 116 min): 93.7732
Cerebellum, Mean (Coca-5HT3, Time 118 min): 92.5349
Striatum, Mean (Coca-5HT3, Time 118 min): 94.2486
Cerebellum, Mean (Coca-5HT3, Time 120 min): 85.32
Striatum, Mean (Coca-5HT3, Time 120 min): 92.7482
Cerebellum, Mean (Control, Time 60 min): 103.946
Striatum, Mean (Control, Time 60 min): 104.425
Cerebellum, Mean (Control, Time 63 min): 103.573
Striatum, Mean (Control, Time 63 min): 105.053
Cerebellum, Mean (Control, Time 66 min): 103.781
Striatum, Mean (Control, Time 66 min): 101.615
Cerebellum, Mean (Control, Time 69 min): 101.695
Striatum, Mean (Control, Time 69 min): 102.645
Cerebellum, Mean (Control, Time 72 min): 100.786
Striatum, Mean (Control, Time 72 min): 99.1445
Cerebellum, Mean (Control, Time 75 min): 98.0752
Striatum, Mean (Control, Time 75 min): 97.188
Cerebellum, Mean (Control, Time 78 min): 100.961
Striatum, Mean (Control, Time 78 min): 99.7495
Cerebellum, Mean (Control, Time 81 min): 99.7275
Striatum, Mean (Control, Time 81 min): 97.1175
Cerebellum, Mean (Control, Time 84 min): 97.0682
Striatum, Mean (Control, Time 84 min): 97.2682
Cerebellum, Mean (Control, Time 87 min): 95.0129
Striatum, Mean (Control, Time 87 min): 98.2036
Cerebellum, Mean (Control, Time 90 min): 95.374
Striatum, Mean (Control, Time 90 min): 97.5908
Cerebellum, Mean (Control, Time 92 min): 99.2942
Striatum, Mean (Control, Time 92 min): 96.7723
Cerebellum, Mean (Control, Time 94 min): 98.6955
Striatum, Mean (Control, Time 94 min): 94.2988
Cerebellum, Mean (Control, Time 96 min): 97.5545
Striatum, Mean (Control, Time 96 min): 90.3041
Cerebellum, Mean (Control, Time 98 min): 95.1481
Striatum, Mean (Control, Time 98 min): 92.8392
Cerebellum, Mean (Control, Time 100 min): 95.7886
Striatum, Mean (Control, Time 100 min): 87.2087
Cerebellum, Mean (Control, Time 104 min): 93.5542
Striatum, Mean (Control, Time 104 min): 88.7106
Cerebellum, Mean (Control, Time 106 min): 95.3248
Striatum, Mean (Control, Time 106 min): 84.6758
Cerebellum, Mean (Control, Time 110 min): 94.4655
Striatum, Mean (Control, Time 110 min): 84.755
Cerebellum, Mean (Control, Time 112 min): 92.6418
Striatum, Mean (Control, Time 112 min): 85.4315
Cerebellum, Mean (Control, Time 116 min): 92.1838
Striatum, Mean (Control, Time 116 min): 85.918
Cerebellum, Mean (Control, Time 118 min): 92.0673
Striatum, Mean (Control, Time 118 min): 82.9007
Cerebellum, Mean (Control, Time 120 min): 91.4483
Striatum, Mean (Control, Time 120 min): 84.8826
[^18F]fallypride binding, cocaine versus saline (control rats, cocaine 3 mg per kg i.v., nucleus accumbens and ventromedial dorsal striatum voxels): significantly decreased
